One experiment deals with T1, Igl-C3 (Entamoeba histolytica, UniProt Q964D2).
T1 construct: gene igl1; CRD-like region, residues 989-1,088 (100 aa), His-tagged, pET-19b, E. coli BL21 Star(DE3)pLysS
Briefly: competition with FITC-PNA on Caco-2 cells; hemagglutination inhibition. In kind it is cell-based. To be noted: 60 mM sugar, 300 nM protein, on ice; also hemagglutination of human group O erythrocytes.

The target of the next experiment is T2, Igl-C (Entamoeba histolytica, UniProt Q964D2).
T2 construct: gene igl1; C-terminal segment, 486 aa (contains Igl-C0 to C3, ends at about residue 1,088), His-tagged, pET-19b, E. coli BL21 Star(DE3)pLysS
Briefly: competition with FITC-PNA on Caco-2 cells. In kind it is cell-based. To be noted: 60 mM sugar, 300 nM protein, on ice.

T2 sequence (Q964D2 entry or part of it): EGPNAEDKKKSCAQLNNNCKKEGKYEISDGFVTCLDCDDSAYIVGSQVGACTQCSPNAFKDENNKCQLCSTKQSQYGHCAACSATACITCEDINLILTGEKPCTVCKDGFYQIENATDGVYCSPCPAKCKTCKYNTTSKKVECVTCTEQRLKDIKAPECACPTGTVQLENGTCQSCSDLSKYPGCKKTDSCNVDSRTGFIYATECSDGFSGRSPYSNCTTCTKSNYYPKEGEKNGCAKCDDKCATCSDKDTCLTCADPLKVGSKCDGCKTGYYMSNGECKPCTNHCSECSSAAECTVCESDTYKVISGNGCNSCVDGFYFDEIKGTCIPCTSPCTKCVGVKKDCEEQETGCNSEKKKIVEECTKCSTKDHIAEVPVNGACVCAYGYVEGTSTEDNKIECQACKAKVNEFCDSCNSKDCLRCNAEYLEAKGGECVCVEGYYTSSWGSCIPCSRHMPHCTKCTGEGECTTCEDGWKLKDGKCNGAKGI
T1 sequence (Q964D2 entry or part of it): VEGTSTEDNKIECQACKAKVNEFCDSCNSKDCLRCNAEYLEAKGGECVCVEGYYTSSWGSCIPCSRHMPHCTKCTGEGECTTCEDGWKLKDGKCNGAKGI

With `CC(=O)N[C@H]1C(O)O[C@H](CO)[C@H](O)[C@@H]1O` (stereo partly drawn) [GalNAc, N-acetyl-D-galactosamine], at Igl-C3, the “competition with FITC-PNA on Caco-2 cells; hemagglutination inhibition” value is given as “only Igl-C3 exhibited obvious hemagglutinating activity, which could be inhibited by Gal/GalNAc”. Also, the “competition with FITC-PNA on Caco-2 cells” value on Igl-C is “this competitive process could in turn be weakened by the addition of Gal and GalNAc”.
As to `OC[C@H]1OC(O)[C@H](O)[C@@H](O)[C@H]1O` (stereo partly shown) [Gal, galactose], the “competition with FITC-PNA on Caco-2 cells; hemagglutination inhibition” value on Igl-C3 is “only Igl-C3 exhibited obvious hemagglutinating activity, which could be inhibited by Gal/GalNAc”. Also, the “competition with FITC-PNA on Caco-2 cells” value at Igl-C is “this competitive process could in turn be weakened by the addition of Gal and GalNAc”.

Values taken from paper PMC11537071, “Identification and characterization of a carbohydrate recognition domain-like region in Entamoeba histolytica Gal/GalNAc lectin intermediate subunit” (Microbiology Spectrum, 2024).
